pEC50, pIC50: −log10 of the molar value. Like-named read-outs stand apart in the source and are kept apart here. A value given as a limit tells only on which side of the number the result lay.

The subject of series [1] is Human Cytomegalovirus. Briefly: Plaque reduction assay for HCMV. It counts as cell-based. To be noted: read-out: Human Cytomegalovirus EC50 (values in parentheses). Background: Plaques are areas of infected cells; plaque reduction assays count them against a control.
For series [2], the system named is Human Cytomegalovirus. The experiment in a line: Semi-automated CPE-inhibition assay for HCMV in human foreskin fibroblast cells. Type of series: cell-based. The method, then:
(§1) Additional antiviral testing was carried out to test the efficacy of compounds of the invention against human cytomegalovirus (HCMV) and another herpesvirus, Variecella Zoster Virus(VZV). The compounds tested were compound (1), the HCl salt of compound (1), Compounds 211, 43, 213 and 214.

Series [3] concerns human foreskin fibroblast cells. The experiment in a line: Inhibition of cell proliferation (cytotoxicity) in herpesvirus screening. It counts as cell-based.
Series [4] has as its system Varicella Zoster Virus. Briefly: Plaque reduction assay for VZV (Ellen strain). It counts as cell-based. The method, then: as §1
A short description of series [5]: Inhibition of cell proliferation (cytotoxicity) in herpesvirus screening. Type of series: cell-based, human. The following applies: human, human foreskin fibroblast cells.
In series [6] the test system is Epstein Barr virus (EBV). Briefly: Antiviral screening against Epstein Barr virus. It counts as cell-based. The following applies: human gammaherpesvirus 4; read-out: anti-EBV activity EC50.
For series [7], the system named is HIV-1 Ba-L. Briefly: Mo-MO/HIV-1 Ba-L infection. Type of series: cell-based. To be noted: Human immunodeficiency virus 1, BAL; fresh.
The test system of series [8] is cell fusion. The experiment in a line: Cell fusion (mechanism of action studies). Type of series: cell-based, HIV. To be noted: preliminary mechanism of action studies.
For series [9], the system named is peripheral blood lymphocytes. The experiment in a line: Cytotoxicity in PBL/HIV-1 Wejo infection assay. It counts as cell-based. The source says: (§2) The studies were based on activity of the compound against HIV-1 in peripheral blood lymphocytes. The results with different solutions and different batches of the compound confirm that the compound is active at submicromolar levels (EC50) and has low cytotoxicity (IC50).

The nature of series [10]: Solubility in human plasma. Type of series: physicochemical. The following applies: plasma or biological fluid, human plasma at 37° C. The method, then:
(§3) Additional studies on stability, solubility, formulation and pharmokinetics were carried out. Plasma elimination and urinary recovery from mice following i.v. administeration were examined. Solubility of the compound in human, mouse, rat plasma and plasma ultrafiltrate were examined. Stability of the compound in human urine was determined.

Series [11] is described as follows: in vitro. The following applies: rat, plasma. It counts as in vitro ADME.
Series [12] deals with T1, HIV protease (Human immunodeficiency virus type 1 group M subtype B, UniProt P04585).
T1 construct: HIV protease
The experiment in a line: Protease activity (rp HPLC). Type of series: biochemical. To be noted: read-out: Protease Activity (rp HPLC) ID50.

The test system of series [13] is MT-4, CEM, MT-2 cell lines, PBMCs. Briefly: Cell toxicity in testing against additional strains (Example 2). The following applies: Homo sapiens, MT2. Type of series: cell-based. The method, then:
(§4) In these tests, the IC50 (50% inhibitory concentration) is the concentration resulting in 50% cellular toxicity. EC50 (median effective concentration) is the compound concentration that reduces infection by 50%. The effectiveness of a compound against a virus is expressed as TI50 (median therapeutic index) which is determined by the ratio IC50/EC50.
(§5) Testing was carried out as described in Example 1 against additional HIV strains. The compound CADA was active against the following viruses using the indicated cell lines:
(§6) IIIB strain of HIV-1/MT-4 cell line
(§7) AZT—resistant HIV-1/MT-2 and MT-4 cell lines
(§8) AZT—sensitive HIV-1/MT-4 cell line
A17, a strain of HIV-1 resistant to most of the non-nucleoside reverse transcriptase inhibitors/MT-2 and MT-4 cell lines,
WeJo, a clinical isolate of HIV-1/PBMCs (fresh human peripheral blood mononuclear cells).

Series [14] has as its system HIV-1 Wejo. The experiment in a line: PBL/HIV-1 Wejo infection. It counts as cell-based.
From the text: as §2

Series [15] can be described thus: Plasma elimination in mice after i.v. administration. To be noted: mouse plasma, intravenous administration. Type of series: in vivo. The method, then: as §3
The nature of series [16]: in vitro. Type of series: in vitro ADME. To be noted: plasma. The method, then:
as §3

The subject of series [17] is HIV strain 2h, a primary pediatric clinical isolate. The experiment in a line: Protein (p24) assay in PBMC cells with 2h. It counts as cell-based. The following applies: read-out: ED50 2h/PBMC.
In series [18] the target is T2, HIV reverse transcriptase (Human immunodeficiency virus type 1 group M subtype B, UniProt P04585).
T2 construct: HIV reverse transcriptase
Briefly: RT activity (rA.dT). It counts as biochemical.

Series [19] concerns Mo-MO. Briefly: Cytotoxicity in Mo-MO/HIV-1 Ba-L infection assay. It counts as cell-based. The following applies: high test.
For series [20], the system named is HIV strain MD48. Briefly: MAGI assay on HeLa-MAGIC cells (plaque inhibition). It counts as cell-based. To be noted: read-out: ED50 MD48/HeLa.
Series [21] concerns HIV-1. Briefly: Anti-HIV soluble formazan (XTT tetrazolium) assay in CEM-IW cells. Type of series: cell-based. The method, then: as §4
(§9) Compounds of the invention were tested to assess the efficacy of the inhibitory effect of the compounds against HIV. The screen was carried out in a soluble formazan assay by the tetrazolium method according to Weislow et al., J. Natl. Cancer Inst. 81:577-586, 1989.
(§10) The compound was dissolved in dimethyl sulfoxide (DMSO) (final conc. less than 0.25%) and then diluted 1:100 in cell culture medium. Because DMSO is toxic to cells at concentration above 1%, the concentration of the compound in DMSO should be at least 10 uM before dilution with aqueous solution. Various concentrations of the compound were tested against HIV-1 in CEM-IW cells. After six days incubation at 37° C. in a 5% carbon dioxide atmosphere, viable cells were analyzed through addition of tetrazolium salt XTT followed by incubation to allow formazan color development. Cell viability was viewed microscopically and detected spectrophotometrically to quantitate formazan production.

Series [22] has as its system virus attachment. The experiment in a line: Attachment (p 24 based). It counts as cell-based, HIV.
The test system of series [23] is influenza virus (FLU WSN). Briefly: Antiviral testing against influenza virus (Example 5). Type of series: cell-based. The following applies: FLU WSH, concentration causing 50% protection against virus.
The subject of series [24] is U1/TNF latent infection. Briefly: Latent infection (U1/TNF). It counts as cell-based.
For series [25], the system named is human cytomegalovirus (HCMV). The experiment in a line: Antiviral testing against human cytomegalovirus (Example 5). Type of series: cell-based. To be noted: concentration causing 50% protection against virus, PDR = poor dose response.
The test system of series [26] is HIV-1 (IIIB, AZT-resistant, AZT-sensitive, A17, WeJo), HIV-2, SIV. The experiment in a line: Anti-HIV testing against additional strains (Example 2). Type of series: cell-based. The following applies: viruses and cell lines listed in Example 2. The method, then:
as §9, §10, §5, §6, §7, §8
A17, a strain of HIV-1 resistant to most of the non-nucleoside reverse transcriptase inhibitors/MT-2 and MT-4 cell lines, […]

Series [27] can be described thus: Stability in pH 4.0 buffer. It counts as physicochemical. The method, then:
as §3

Series [28] deals with HIV strain MB48. Briefly: Reverse transcriptase (RT) assay in MT-2 cells, HIV strain MB48. It counts as cell-based.
A short description of series [29]: Formulation for animal studies in DMSO/normal saline. Type of series: physicochemical. The following applies: 1:20 mixture of DMSO and normal saline (pH 2.7). The method, then: as §3
The subject of series [30] is rous sarcoma virus. The experiment in a line: Antiviral testing against rous sarcoma virus (Example 5). Type of series: cell-based. To be noted: RSV, concentration causing 50% protection against virus, PDR = poor dose response.
Series [31] relates to Varicella Zaster Virus (VZV). The experiment in a line: Ocular Varicella Zaster Virus infection in rabbits, intravenous therapy. It counts as in vivo, rabbit.
Series [32] deals with herpes simplex virus (HSV). Briefly: Antiviral testing against herpes simplex virus (Example 5). Type of series: cell-based. To be noted: concentration causing 50% protection against virus, PDR = poor dose response.
Setting [33] is: inhibit cell proliferation by 50%, HCMV CPE-inhibition screen, read-out: Human Cytomegalovirus CC50.
Where [34] appears, read: inhibit cell proliferation by 50%, VZV screen, read-out: Varicella Zoster Virus CC50.

Broadly, the CC50 is the concentration at which the toxic effect on the cells reaches its halfway point. For “N-Benzyl-N-[3-(N-2-methyl-2-propenyl-toluenesulfonamido)propyl]-N-(3-toluenesulfonamidopropyl)amine dihydrogen sulfate [Compound 214]”, the pEC50 in series [1] was 4.69; in series [2] it was 5.66; in series [4], 4.60. The CC50 in series [3] (setting [33]) is greater than 150 µM; in [3] (setting [34]), 68.5 µM; in series [3] (with HCMV plaque reduction assay, read-out: Human Cytomegalovirus CC50 (values in parentheses)), 147 µM.
For the compound `C=C1CN(S(=O)(=O)c2ccc(C)cc2)CCCN(C(=O)OCC)CCCN(S(=O)(=O)c2ccc(C)cc2)C1` [Compound 213, 9-(Ethyloxycarbonyl)-3-methylene-1,5-ditosyl-1,5,9-triazacyclododecane], the pEC50 is 5.52 in series [2] (Human betaherpesvirus 5), 3.77 in [4] (Human alphaherpesvirus 3) and 5.17 in [6]. The CC50 in [5] (setting [33]) is 167 µM; in [5] (setting [34]), greater than 180 µM; in [5] (with anti-EBV screen, read-out: CC50), greater than 180 µM.
Broadly, the solubility is the concentration that dissolves in the medium under given conditions. Read a high solubility as much dissolved substance. One may read the half-life as the time in which the quantity being followed falls by half. High values mean slow decline, low ones rapid decline. By IC50 is commonly meant the concentration needed to halve the response being measured. On to `C=C1CN(S(=O)(=O)c2ccc(C)cc2)CCCN(Cc2ccccc2)CCCN(S(=O)(=O)c2ccc(C)cc2)C1` [Compound 1, 9-Benzyl-3-methylene-1,5-ditosyl-1,5,9-triazacyclododecane], for which the pEC50 was 5.82 in series [7]; 6.26 in [14] (Human immunodeficiency virus 1, Batch 1, A); 6.80 in [14] (Human immunodeficiency virus 1, Batch 1, B); 6.19 in [14] (Human immunodeficiency virus 1, Batch 2); less than 4.47 in [2] (Human betaherpesvirus 5); 6.82 in series [17] (Human immunodeficiency virus 1, PBMC, 2 h). Further, the pEC50 in series [20] (Human immunodeficiency virus 1, MAGI) is 6.30; in [21] (Human immunodeficiency virus 1, HIV-1(6S)-AZT sensitive, CEM-IW cells, first test) it was 5.92; in series [21] (Human immunodeficiency virus 1, second test, another batch, primary screen) it was 5.62; in [26], 5.70; in [28] (Human immunodeficiency virus 1, MT2, read-out: ED50 MB48/MT-2), 6.10; in series [4] (Human alphaherpesvirus 3), 5.28. In addition, in series [8], the “inhibition of cell fusion” value is “does not appear to inhibit”. The pIC50 in series [9] (Batch 1, B) is less than 4.00; in series [9] (Batch 2), less than 4.00; in series [9] (Lymphocyte, Batch 1, A), less than 4.00; in series [12] it was 4.40; in series [13] it was less than 4.52; in [19], less than 4.52. Moreover, the figures for the solubility in series [10] and in [10] (conversion of ug/mL) were 1 to 2 µg/mL and 2 to 3 µM, respectively. For the same compound, the half-life in [11] is greater than 200 h; in series [16] (human), 126 h; in [16] (mouse), greater than 200 h; in series [27] it was 139 h. The “time detectable in plasma” value in series [15] is on record as “up to 2 hours”. Moreover, the CC50 in series [5] (setting [33]) amounted to 133 µM; in [5] (setting [34]) it was 89 µM. Moreover, the “RT activity (rA.dT) ID50” value in series [18] is given as “No Inhibition”. Also, in series [22], the Attachment entry is given as “No Inhibition”. Besides, the IC50 in series [23] (listed as CADA (1)) was greater than 50 µg/mL; in series [23] (unidentified influenza virus, WSN), greater than 30 µg/mL; in [25] (HCMV, listed as CADA (1)), greater than 50 µg/mL; in series [25] (Human betaherpesvirus 5, HCMV, read-out: IC50), greater than 30 µg/mL; in series [30] (read-out: IC50), greater than 30 µg/mL. In [24], the “Latent Infection” value was “No inhibition”. Further, the “concentration at which the compound can be formulated” value in series [29] was 1200 nM.
With `C=C1CN(S(=O)(=O)c2ccc(C)cc2)CCCN(Cc2ccccc2)CCCN(S(=O)(=O)c2ccc(C)cc2)C1.Cl` [1 · HCl], the pEC50 was less than 3.80 in series [2]; 6.82 in series [17] (Protein (p24) assay in PBMC cells); 7.00 in series [20] (MAGI assay on HeLa-MAGIC cells (plaque inhibition)); 6.70 in series [28] (Reverse transcriptase (RT) assay in MT-2 cells, read-out: ED50 MB48/MT-2); 5.47 in series [4]. For the same compound, the cytotoxic concentration (CC50) in series [3] (setting [33]) and in series [3] (setting [34]) was greater than 160 µM in each case. Further, the “development of iritis and resolution of VZV disease, comparison of therapies” value in [31] (By day 5 PI) is on record as “more effective than acyclovir therapy”. Further, the “iris disease (uveitis) development” value in series [31] (rabbits, intravenous therapy) was “positive therapeutic response”. In [31] (rabbits, intravenous, CADA-HCl 5 and 10 mg/kg/day, ACV 20 mg/kg/day), the “VZV-induced corneal stromal disease development” value is “effective in reducing the development of stromal disease”. Moreover, the concentration for half-maximal inhibition (IC50) in series [23] is greater than 50 µg/mL; in series [25] (HCMV), “PDR”; in [30] it was “PDR”; in [32] it was “PDR”.

Source of the values: US6342492B1, “Anti-viral triaza compounds and compositions” (The Research Foundation of State University of New York, priority 1995, dated 2002).
